From patent US10570099B2, “Salts of an epidermal growth factor receptor kinase inhibitor” (Celgene CAR LLC, priority 2012, dated 2020)

How the values were obtained:
[1] = Dog PK Study 2 (gastric pH adjustment, food effect); assay type: in vivo, beagle dogs; settings: dogs, oral, 30 mg/kg QD, both low and high gastric pH conditions
Description: Compound 1 free base and compound 2, as the Form I monohydrobromide (HBr) salt, were evaluated in a cross-over dog PK study in which male dogs were pre-treated with either pentagastrin (to decrease gastric pH) or famotidine (to increase gastric pH) prior to oral dosing to control gastric pH. In addition, the effect of food on the systemic exposure to compound 1 was also evaluated in dogs receiving Form I HBr with pentagastrin pre-treatment. Compound 1 free base capsule consisted of compound 1 free base in Vitamin E TPGS and PEG 400 filled into a capsule. The Form I hydrobromide salt capsule consisted of Form I HBr alone filled into a capsule.
There was a minimum 6-day washout between dosing. On the day of dosing under fed condition, dogs were given 60 gram of a high fat diet (Harlan Teklad 2027C) and allowed to consume all of the food within 15-20 minutes. The animals were given a 10-minute rest period and then the capsule doses were administered. Plasma samples were collected at pre-dose and 0.5, 1, 2, 4, 6, 8, 12 and 24 hours post dose.

[2] = Administration to healthy volunteers (single dose PK study); assay type: in vivo, healthy male subjects; settings: 50 mg dose, Regimen B
Source text: The primary objective of the study is to compare the compound 1 pharmacokinetic (PK) profiles of single doses of Form I monohydrobromide formulations with that of the compound 1 free base in healthy adult males.
This is a single centre non-randomised, open-label, single dose study in healthy male subjects. Subjects will be screened for eligibility to participate in the study up to 28 days before dosing. The subjects will be admitted to the clinical unit at approximately 09:00 in the morning on the day prior to dosing (Day-1) and will remain on site until 24 h after each dose. Each subject will attend a follow-up visit 4 to 6 days after the final dose.
One group of 12 subjects will be dosed in an effort to obtain the data described above. Each subject will receive the following formulations in a crossover investigation. Dosing will be separated by at least 7 days. • Regimen A: 150 mg compound 1 (free base) capsule • Regimen B: 50 mg as active compound 2 (Form I HBr) tablet formulation • Regimen C: ≤150 mg as active compound 2 (Form I HBr) tablet formulation
All formulations will be dosed in the morning, following an overnight fast. Subjects will be allowed water up to 2 h before the scheduled dosing time and will be provided with 240 mL of water at 2 h post-dose. […]
Plasma concentration data will be tabulated and plotted for each subject for whom concentrations are quantifiable.

Question: For `Br.C=CC(=O)Nc1cccc(Nc2nc(Nc3ccc(N4CCN(C(C)=O)CC4)cc3OC)ncc2C(F)(F)F)c1` [Form I hydrobromide salt], which “compound 1 exposure compared to the free base form” value [1] is on record?
Answer: Its value is “significantly higher”.

Question: What about the patient-to-patient variability [2] of the same compound?
Answer: The patient-to-patient variability was “less patient-to-patient variability”.
